How the values were obtained:
Assay type in all cases: cell-based, C57BL/6 mice
islets [1] = assay: Islet glucose-stimulated calcium response (FURA ratio) under hypoxia in microfluidic device
Experimental: To quantify their response to hypoxia, FURA-incubated islets were loaded into the multimodal device and exposed to 21%, 10%, and 5% oxygen while monitoring their calcium responses. In the GSIR mechanism, the calcium response correlates with insulin secretion, thus a stimulatory glucose pulse will result in a pulse in intracellular calcium. Under 21% oxygen flow, normoxic for ex vivo islets, the calcium responded with standard bi-phasic profile with magnitudes 1.3 times above their baseline, as shown in FIG. 8A. Note that subsequent hypoxic conditions were normalized against this normoxic pulse. When the islets were exposed to 5% hypoxia for 30 minutes (under zero flow), their calcium response lost both pulse magnitude as well as phase information. […] Quantitatively, the pulse height was depressed below 50% of the normoxic pulse, for both 10% and 5% hypoxia.
Islets were incubated in 100 μM diazoxide for 10 minutes and washed in Krebs buffer for 10 minutes prior to hypoxia and glucose stimulation. […] Both mitochondrial hyperpolarization and insulin secretion were improved with diazoxide compared to IH+5HD, as shown in FIG. 10B.
C57BL/6 mice were sacrificed as islet donors for the murine islet experiments. 5 ml collagenase P solution at 0.375 mg/ml in HBSS was prepared for each animal and kept on ice. The animal was euthanized with CO2 and 3% isoflurane followed by cervical dislocation to ensure no discomfort. The animal was disinfected with 70% ethanol before making a V-incision at the genital area and moving the bowel to clearly expose the bile duct. The ampulla on the surface of duodenum was clamped with a hemostat. The pancreas was then distended (inflated) through the bile duct with a 30-gauge needle with 5 ml syringe containing 2 ml of cold collagenase solution, starting at the gall bladder. The pancreas was then removed and placed in a 15 ml tube containing 2 ml of collagenase solution in a 37° C. water bath for 12 minutes. Then, 10 ml of cold HBSS was added to stop the digestion when 80% of the pancreas has disintegrated. […]

islets [2] = assay: Islet mitochondrial hyperpolarization by Rhodamine 123 fluorescence
Experimental: The effects of hypoxia and intermittent hypoxia preconditioning on calcium were paralleled by changes in insulin secretion and mitochondrial potential, as measured by off-chip insulin ELISA and Rhodamine 123 fluorescence, respectively. Insulin fractions were collected at 1 minute intervals during flow, with a stop-flow incubation period during the glucose exposure, as shown in FIG. 10A. The hypoxic pulse rendered insulin response down to basal levels (even drifting below baseline) while preconditioning improved insulin to 85% of normoxia while exposed to hypoxia. However, all insulin samples were collected in the same manner to account for this issue. Mitochondria hyperpolarization, monitored with Rhodamine uptake and self-quenching, was improved with IH preconditioning compared to hypoxia exposure alone. […] Islets were incubated in 100 μM diazoxide for 10 minutes and washed in Krebs buffer for 10 minutes prior to hypoxia and glucose stimulation. […] Both mitochondrial hyperpolarization and insulin secretion were improved with diazoxide compared to IH+5HD, as shown in FIG. 10B. […] All fluids perfused through the MIIH device were prepared in Krebs Ringer bicarbonate buffer: 129 mM NaCl, 5 mM NaHCO3, 4.7 mM KCl, 1.2 mM KH2PO4, 1 mM CaCl2.2H2O, 1.2 mM MgSO4.7H2O, 10 mM HEPES pH 7.35-7.40. […] FURA was excited at 340 and 380 nm and measured at 510 nm while Rho123 was excited at 495 nm and measured at 530 nm FURA measurements were expressed as a ratio of 340 nm over 380 nm intensities. […] The data was then normalized against the standard normoxic pulse to minimize variation between experiments and the results were expressed as “FURA Ratio %”. Rho123 measurement and the associated hyperpolarization drop were also analyzed similarly by normalizing against a normoxic standard. The insulin ELISA timepoints, measured in ng/mL, was expressed as an index of the maximum value over the baseline average to account for the stop flow during glucose/hypoxic incubation and also varying number of islets in the experiments. […]

islets [3] = assay: Islet insulin secretion, off-chip insulin ELISA
Experimental: The effects of hypoxia and intermittent hypoxia preconditioning on calcium were paralleled by changes in insulin secretion and mitochondrial potential, as measured by off-chip insulin ELISA and Rhodamine 123 fluorescence, respectively. Insulin fractions were collected at 1 minute intervals during flow, with a stop-flow incubation period during the glucose exposure, as shown in FIG. 10A. The hypoxic pulse rendered insulin response down to basal levels (even drifting below baseline) while preconditioning improved insulin to 85% of normoxia while exposed to hypoxia. However, all insulin samples were collected in the same manner to account for this issue. Mitochondria hyperpolarization, monitored with Rhodamine uptake and self-quenching, was improved with IH preconditioning compared to hypoxia exposure alone. […] Islets were incubated in 100 μM diazoxide for 10 minutes and washed in Krebs buffer for 10 minutes prior to hypoxia and glucose stimulation. […] Both mitochondrial hyperpolarization and insulin secretion were improved with diazoxide compared to IH+5HD, as shown in FIG. 10B. […] Glucose and Krebs buffer flow were only introduced while washing or stimulating the islets, and flow was stopped at all other times. […] The plates were read in a Biotek Synergy 2 plate reader. […] FURA was excited at 340 and 380 nm and measured at 510 nm while Rho123 was excited at 495 nm and measured at 530 nm FURA measurements were expressed as a ratio of 340 nm over 380 nm intensities. […] The data was then normalized against the standard normoxic pulse to minimize variation between experiments and the results were expressed as “FURA Ratio %”. Rho123 measurement and the associated hyperpolarization drop were also analyzed similarly by normalizing against a normoxic standard. The insulin ELISA timepoints, measured in ng/mL, was expressed as an index of the maximum value over the baseline average to account for the stop flow during glucose/hypoxic incubation and also varying number of islets in the experiments. […]

[4] = 100 μM diazoxide, not statistically significant
[5] = 100 μM diazoxide, 5% hypoxia, FIG. 10B

| SMILES | preconditioning of islets under hypoxia (FURA profile) (islets [1]; IH (1 m/1 m cycle, 60 min total) and 100 μM 5HD simultaneously) | mitochondrial hyperpolarization with 5HD (islets [2]; IH plus 5HD) | preconditioned insulin response with 5HD (islets [3]; IH plus 5HD) | preconditioning of islets under hypoxia (glucose calcium response) (islets [1]; 100 μM diazoxide 10 minutes, washed in Krebs buffer 10 minutes prior to 5% hypoxia and glucose stimulation) | calcium response compared to IH preconditioning alone (islets [1]; [4]) | mitochondrial hyperpolarization compared to IH+5HD (islets [2]; [5]) | mitochondrial hyperpolarization compared to IH preconditioning alone (islets [2]; [4]) | insulin secretion compared to IH+5HD (islets [3]; [5]) | insulin response compared to IH preconditioning alone (islets [3]; [4]) |
| --- | --- | --- | --- | --- | --- | --- | --- | --- | --- |
| CCCCCC(O)CCCC(=O)O (stereo not drawn) [5HD, 5-hydroxydecanoic acid] | failed to be preconditioned | decreased mitochondrial hyperpolarization | decoupling of preconditioned insulin response | – | – | – | – | – | – |
| CC1=NS(=O)(=O)c2cc(Cl)ccc2N1 [diazoxide] | – | – | – | provided preconditioning benefits | higher average | improved | less than that of IH preconditioning alone | improved | higher average |
